Values quoted from earlier work as cited in patent publication US20040197402A1, “Oxcarbazepine dosage forms” (priority 2001, published 2004).

Conditions: background statement

solubility in water: poor solubility in water
SMILES: NC(=O)N1c2ccccc2CC(=O)c2ccccc21 [Oxcarbazepine, 10, 11-dihydro-10-oxo-5H-dibenz [b,f], azepine-5-carboxamide]
